Test results as given in US20240246934A1, “QUINAZOLINE-BASED COMPOUND, COMPOSITION, AND APPLICATION OF QUINAZOLINE-BASED COMPOUND” (BEIJING SCITECH-MQ PHARMACEUTICALS LIMITED, priority 2021, published 2024).
Where two headings read alike, the source gives them in different places.

Columns and labels:
[1] = biological target: T1, HER2 kinase (Homo sapiens, UniProt P04626); experiment: HER2 kinase assay (ULight/PT66 TR-FRET); type: biochemical
T1 construct: purchased Carna Biosciences 08-016
Outline: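 HER2 kinase preincubated 5 min with compounds (11-point 3-fold series, duplicates), then reacted 120 min at room temperature with ATP and ULight-poly GT peptide, each prepared at 4× working concentration (40 μM ATP, 400 nM substrate, 40 nM kinase). PT66 antibody added for 60 min, TR-FRET read; IC50 from inhibition curves.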

[2] = biological target: EGFR^WT kinase (Homo sapiens, UniProt P00533); experiment: EGFR^WT kinase assay (ULight/PT66 TR-FRET); type: biochemical
EGFR^WT kinase, sequence (P00533 25-1210): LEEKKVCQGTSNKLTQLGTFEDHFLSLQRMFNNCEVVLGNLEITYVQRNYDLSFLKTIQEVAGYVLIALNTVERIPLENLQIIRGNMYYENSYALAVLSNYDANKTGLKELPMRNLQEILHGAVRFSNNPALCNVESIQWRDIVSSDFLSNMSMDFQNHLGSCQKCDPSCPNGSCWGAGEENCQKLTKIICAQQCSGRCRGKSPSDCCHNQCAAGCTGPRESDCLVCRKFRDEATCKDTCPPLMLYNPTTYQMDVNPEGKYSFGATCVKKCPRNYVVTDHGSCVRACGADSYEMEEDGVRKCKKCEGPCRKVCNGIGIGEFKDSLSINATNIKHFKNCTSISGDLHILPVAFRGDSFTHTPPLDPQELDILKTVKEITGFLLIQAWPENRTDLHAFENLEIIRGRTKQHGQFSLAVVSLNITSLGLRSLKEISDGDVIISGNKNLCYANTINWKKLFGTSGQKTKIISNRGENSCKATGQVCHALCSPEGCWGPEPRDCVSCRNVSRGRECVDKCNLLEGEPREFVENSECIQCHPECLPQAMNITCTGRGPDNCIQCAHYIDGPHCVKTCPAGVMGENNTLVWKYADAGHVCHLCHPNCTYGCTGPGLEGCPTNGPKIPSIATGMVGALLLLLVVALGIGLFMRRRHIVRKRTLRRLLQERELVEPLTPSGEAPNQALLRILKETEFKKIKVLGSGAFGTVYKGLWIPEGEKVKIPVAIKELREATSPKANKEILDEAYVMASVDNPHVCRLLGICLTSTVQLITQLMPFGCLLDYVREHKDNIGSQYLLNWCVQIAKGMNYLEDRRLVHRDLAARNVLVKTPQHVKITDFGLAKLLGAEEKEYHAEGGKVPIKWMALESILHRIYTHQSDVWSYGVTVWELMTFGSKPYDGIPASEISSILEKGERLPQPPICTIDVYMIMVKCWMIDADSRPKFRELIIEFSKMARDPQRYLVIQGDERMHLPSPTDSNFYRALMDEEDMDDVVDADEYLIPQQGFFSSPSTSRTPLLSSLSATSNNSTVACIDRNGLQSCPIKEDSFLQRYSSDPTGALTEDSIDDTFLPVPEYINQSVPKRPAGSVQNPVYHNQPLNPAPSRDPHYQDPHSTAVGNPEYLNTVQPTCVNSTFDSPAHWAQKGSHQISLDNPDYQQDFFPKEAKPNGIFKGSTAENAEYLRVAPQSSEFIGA
Outline: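 Enzyme preincubated 5 min with compound (11-point 3-fold series, duplicate), then ULight-JAK-1 (Tyr1023) peptide and ATP added at 4× stocks of 400 nM and 600 μM; 120 min reaction at room temperature. PT66 antibody TR-FRET read after 60 min; IC50 fitted from inhibition rates.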

[3] = biological target: Ba/F3 HER2 A775_G776insYVMA cells (Homo sapiens, UniProt P04626, DUP772-775, cells depend on it); experiment: Inhibition of cell proliferation, CTG method, Ba/F3 HER2 A775_G776insYVMA; type: cell-based
Ba/F3 HER2 A775_G776insYVMA cells, sequence (P04626 with tags, fused parts or gaps DUP772-775): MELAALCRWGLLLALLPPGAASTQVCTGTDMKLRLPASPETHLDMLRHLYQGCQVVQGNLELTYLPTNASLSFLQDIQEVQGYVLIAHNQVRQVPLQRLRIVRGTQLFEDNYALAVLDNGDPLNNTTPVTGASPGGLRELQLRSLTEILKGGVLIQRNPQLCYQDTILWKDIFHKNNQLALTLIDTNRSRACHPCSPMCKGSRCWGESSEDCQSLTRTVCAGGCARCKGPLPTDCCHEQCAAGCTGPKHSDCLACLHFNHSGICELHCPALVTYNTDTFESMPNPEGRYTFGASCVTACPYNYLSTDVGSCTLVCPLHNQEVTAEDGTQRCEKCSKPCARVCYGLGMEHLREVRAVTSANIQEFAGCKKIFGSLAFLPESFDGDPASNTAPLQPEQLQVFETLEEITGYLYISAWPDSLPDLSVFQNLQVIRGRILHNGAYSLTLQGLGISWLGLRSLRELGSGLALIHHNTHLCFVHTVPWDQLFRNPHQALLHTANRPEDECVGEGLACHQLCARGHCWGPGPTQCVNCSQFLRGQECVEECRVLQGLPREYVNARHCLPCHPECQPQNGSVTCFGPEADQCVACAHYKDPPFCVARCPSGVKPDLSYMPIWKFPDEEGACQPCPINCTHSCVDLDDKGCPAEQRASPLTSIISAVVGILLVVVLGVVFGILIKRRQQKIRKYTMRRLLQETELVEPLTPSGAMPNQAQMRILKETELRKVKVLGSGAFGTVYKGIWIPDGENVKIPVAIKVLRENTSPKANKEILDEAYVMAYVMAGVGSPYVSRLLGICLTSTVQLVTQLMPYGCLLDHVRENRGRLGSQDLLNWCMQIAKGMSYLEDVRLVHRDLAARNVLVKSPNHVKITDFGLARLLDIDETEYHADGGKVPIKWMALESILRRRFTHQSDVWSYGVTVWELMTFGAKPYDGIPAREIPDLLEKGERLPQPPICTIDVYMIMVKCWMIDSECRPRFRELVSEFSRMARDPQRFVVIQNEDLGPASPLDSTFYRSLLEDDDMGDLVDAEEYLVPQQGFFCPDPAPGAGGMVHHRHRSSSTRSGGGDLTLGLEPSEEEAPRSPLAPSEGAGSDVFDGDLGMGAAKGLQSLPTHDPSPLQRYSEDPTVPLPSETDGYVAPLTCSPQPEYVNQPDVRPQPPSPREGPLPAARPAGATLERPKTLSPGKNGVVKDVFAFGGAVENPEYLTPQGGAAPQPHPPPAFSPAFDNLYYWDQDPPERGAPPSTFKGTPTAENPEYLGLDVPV
Outline: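 Ba/F3 HER2 A775_G776insYVMA cells in RPMI1640 with 10% FBS were plated at 3000 cells/well and treated directly with compound (top 10 μM, 4-fold, 9 concentrations, duplicates).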

[4] = biological target: Ba/F3 EGFR D770_N771insSVD cells (Homo sapiens, UniProt P00533, DUP768-770, cells depend on it); experiment: Inhibition of cell proliferation, CTG method, Ba/F3 EGFR D770_N771insSVD; type: cell-based; conditions: 72 hours, read-out: Ba/F3 EGFR D770_N771insSVD IC50
Ba/F3 EGFR D770_N771insSVD cells, sequence (P00533 with tags, fused parts or gaps DUP768-770): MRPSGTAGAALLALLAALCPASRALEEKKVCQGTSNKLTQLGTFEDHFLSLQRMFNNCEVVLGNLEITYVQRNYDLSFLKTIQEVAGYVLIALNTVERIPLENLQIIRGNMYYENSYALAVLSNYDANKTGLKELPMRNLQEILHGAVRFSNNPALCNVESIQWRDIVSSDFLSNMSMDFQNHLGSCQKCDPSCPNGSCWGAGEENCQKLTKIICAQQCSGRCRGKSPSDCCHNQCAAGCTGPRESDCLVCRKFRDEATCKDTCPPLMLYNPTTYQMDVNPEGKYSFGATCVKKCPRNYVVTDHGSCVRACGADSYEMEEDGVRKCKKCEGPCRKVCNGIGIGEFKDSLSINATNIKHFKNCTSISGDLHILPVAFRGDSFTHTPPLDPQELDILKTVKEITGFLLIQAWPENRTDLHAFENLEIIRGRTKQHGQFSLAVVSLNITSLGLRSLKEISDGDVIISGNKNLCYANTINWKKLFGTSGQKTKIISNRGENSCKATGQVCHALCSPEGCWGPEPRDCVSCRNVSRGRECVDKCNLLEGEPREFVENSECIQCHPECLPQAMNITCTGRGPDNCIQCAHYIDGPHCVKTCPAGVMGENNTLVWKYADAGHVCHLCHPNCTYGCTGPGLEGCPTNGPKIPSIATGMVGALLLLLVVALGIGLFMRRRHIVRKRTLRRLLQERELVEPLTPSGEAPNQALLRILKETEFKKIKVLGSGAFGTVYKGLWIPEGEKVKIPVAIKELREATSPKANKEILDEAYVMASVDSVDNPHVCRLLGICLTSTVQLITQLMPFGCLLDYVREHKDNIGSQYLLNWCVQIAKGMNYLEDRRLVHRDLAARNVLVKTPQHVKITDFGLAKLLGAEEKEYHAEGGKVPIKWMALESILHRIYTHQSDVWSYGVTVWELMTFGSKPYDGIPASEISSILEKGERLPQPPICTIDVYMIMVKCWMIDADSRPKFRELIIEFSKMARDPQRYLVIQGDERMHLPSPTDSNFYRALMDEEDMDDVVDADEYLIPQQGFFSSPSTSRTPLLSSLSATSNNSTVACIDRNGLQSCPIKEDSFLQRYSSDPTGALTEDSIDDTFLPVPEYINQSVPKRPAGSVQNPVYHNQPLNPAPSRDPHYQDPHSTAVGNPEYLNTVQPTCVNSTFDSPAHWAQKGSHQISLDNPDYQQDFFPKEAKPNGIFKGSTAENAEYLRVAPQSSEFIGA
Excerpt: The present application examined the in vitro anti-proliferative activity of the compounds of the present disclosure against in vitro cultured BT474, NCI-N87, Ba/F3-EGFR-VIII and Ba/F3 HER2 A775_G776insYVMA and Ba/F3 EGFR D770_N771insSVD cell lines by CTG method.
Reagents and consumables: RPMI1640 (ThermoFisher, Cat. No. C11875500BT); fetal bovine serum (Hyclone, Cat. No. SV30087.03); 0.25% trypsin-EDTA (ThermoFisher, Cat. No. 25200-072); penicillin-streptomycin (Hyclone, Cat. No. SV30010); DMSO (Amresco, Cat. No. 0231-500ML); CTG assay kit (Promega, Cat. No. G924C); 96-well plate (Corning, Cat. No. 3603); multifunctional plate reader (Perkin Elmer, Cat. No. Envision)
Cell lines: BT474 (from the cell bank of Chinese Academy of Sciences), NCI-N87 (from ATCC), Ba/F3-EGFR-VIII, Ba/F3 HER2 A775_G776insYVMA and Ba/F3 EGFR D770_N771insSVD (all from KYinno Biotechnology (Beijing) Co., Ltd.); all of the above cells were cultured with RPMI1640 medium containing 10% fetal bovine serum, 100 U/mL penicillin, and 100 μg/mL streptomycin in the culture process.
1. The assay compound was dissolved with DMSO to form a stock solution and a gradient dilution was performed, followed by dilution with the corresponding medium to obtain a solution with 5-fold working concentration.
2. Cells in logarithmic growth phase were adjusted to specific cell densities by dilution with culture medium, and 80 μL of cell suspension was added to a 96-well plate, such that plating densities of cells of BT474, NCI-N87, Ba/F3-EGFR-VIII, Ba/F3 HER2 A775_G776insYVMA and Ba/F3 EGFR D770_N771insSVD were all 3000 cells/well. The cells of Ba/F3-EGFR-VIII, Ba/F3 HER2 A775_G776insYVMA and Ba/F3 EGFR D770_N771insSVD were used directly in the next step (treatment with compound), whereas the BT474 and NCI-N87 needed to be cultured overnight in a 37° C., 5% carbon dioxide gas incubator to adhere to the wall, and then treated with compounds.
3. 20 μL of compound solution was added to each well of the 96-well plate that had been inoculated with cells. The highest concentration of the assayed compound was 10 μM, 4-fold serial dilution, a total of 9 concentrations, and duplicate wells. A control group without compound was also set up.
4. The cells were cultured for another 72 hours, and then cell viability was detected by CTG assay kit. Signal values were read with a multifunctional plate reader (Perkin Elmer). GraphPad Prism software was used to create a dose-response curve and IC50 was calculated.

[5] = Pharmacokinetics in SD rats, single intravenous injection and oral administration; type: in vivo, SD rat; conditions: for bioavailability: PO 10 mg/kg vs IV 3 mg/kg, read-out: F % (bioavailability)
Protocol: In this assay, the pharmacokinetic characteristics of the compounds of the present application were assayed after administration of some of the compounds of the present application to SD rats by single oral administration and intravenous injection. 1. […] The mixture was stirred, vortexed and/or sonicated. Once a solution was obtained, the vehicle was gradually added to a final volume to reach the target concentration. The solution was vortexed, and sonicated to obtain a homogeneous solution. The solution was filtered through a 0.22 μm PVDF membrane. 2. […] The mixture was stirred, vortexed and/or sonicated. Once a solution was obtained, the vehicle was gradually added to a final volume to reach the target concentration. The solution was vortexed, and sonicated to obtain a homogeneous solution. […] Meanwhile, the IV group was not fasted and the PO group was fasted overnight (>12 hrs) and given food 2 hrs after drug administration. All animals had free access to water. The dosing regimen and pharmacokinetic sampling regimen are given in Table 6 and Table 7 below, respectively. […] Rats were administered according to the above regimen, and blood and brain tissue samples were collected and processed at predetermined time points (collection and processing were performed according to conventional methods in the art). […] The supernatant was diluted 2-fold with ultra-pure water, and the samples were analyzed by LC/MS. Pharmacokinetic parameters was calculated using WinNonlin software. The following pharmacokinetic parameters was calculated from the plasma drug concentration-time data: CL (clearance); Vd (apparent volume of distribution); T1/2 (elimination half-life time); Cmax (peak concentration); Tmax (time to peak); AUC (area under plasma drug concentration-time curve); MRT (mean retention time); F % (bioavailability).

[6] = Brain tissue and whole blood concentration in SD rats after oral administration; type: in vivo; conditions: rat, PO 10 mg/kg, 2 h after administration; for Kp at 2 h: brain / whole blood, read-out: Brain tissue/blood ratio
Protocol: In this assay, the pharmacokinetic characteristics of the compounds of the present application were assayed after administration of some of the compounds of the present application to SD rats by single oral administration and intravenous injection.
2. […] The mixture was stirred, vortexed and/or sonicated. Once a solution was obtained, the vehicle was gradually added to a final volume to reach the target concentration. The solution was vortexed, and sonicated to obtain a homogeneous solution.
Meanwhile, the IV group was not fasted and the PO group was fasted overnight (>12 hrs) and given food 2 hrs after drug administration. All animals had free access to water. The dosing regimen and pharmacokinetic sampling regimen are given in Table 6 and Table 7 below, respectively.
Rats were administered according to the above regimen, and blood and brain tissue samples were collected and processed at predetermined time points (collection and processing were performed according to conventional methods in the art).
The supernatant was diluted 2-fold with ultra-pure water, and the samples were analyzed by LC/MS.
Brain tissues were weighed and homogenized by adding 4-fold homogenizing solution (acetonitrile/water=1/1 v/v). […] The supernatant was diluted 2-fold with ultra-pure water, and the samples were analyzed by LC/MS.

[7] = tested on: Ba/F3 ERBB2 A775_G776insYVMA; experiment: Efficacy in nude mouse tumor-bearing model of Ba/F3 ERBB2 A775_G776insYVMA; type: in vivo, BALB/c nude mice; conditions: for effect on tumor size (in words): 30 mg/kg PO; for T/C (%): 30 mg/kg, QD×14, PO, day 14
Protocol: In this assay, some compounds of the application were orally administered to a nude mouse tumor-bearing model of Ba/F3 ERBB2 A775_G776insYVMA to study the effect of the compounds of the application on tumor growth.
Preparation of the assay compound: an appropriate weight of the compound to be assayed was weighed, and completely dissolved in an appropriate volume of vehicle (DMSO). The mixture was vortexed or sonicated. Then an appropriate amount of Solutol was added and mixed well. Finally, sterilized drinking water was added and the mixture was mixed by stirring or vortexing to obtain a homogeneous solution or suspension.
Method: All the assays were authorized and agreed by the Animal Welfare Committee. Ba/F3 ERBB2 A775_G776insYVMA in a logarithmic growth period was inoculated subcutaneously into the right back of immunodeficient nude mice (BALB/c nude, female, 6-7 weeks of age, body weight 18±2 g) with 4×10^6 cells/rat. After the tumor grew to 150-200 mm^3, the animals were randomly divided into a treatment group and a control group. For the treatment group, a solution of each assay compound was given, and for the control group, a vehicle solution without the assay compound was given. Both of the treatment group and the control group were administered once a day for about 2 weeks. The dose of each assay article was 30 mg/kg (in terms of effective compound concentration), and the assay compounds were all prepared freshly for use. During the assay, the diameter of loaded tumors was measured twice a week, and the mice were weighed at the same time. The tumor volume (TV) was calculated by the formula: TV=½×a×b^2, where a and b denote length and width, respectively. Relative tumor volume (RTV) was calculated based on the measured results by the formula: RTV=Vt/V0, where V0 is the tumor volume measured at grouping and administration and Vt is the tumor volume at each measurement. The evaluation index of antitumor activity was the relative tumor proliferation rate T/C (%) calculated by the formula: T/C (%)=(TRTV/CRTV)×100%, TRTV: RTV of the administration group; CRTV: RTV of the control group. T and C denote the average tumor volume at a certain time point in the administration group and the control group, respectively.

[8] = 72 hours, read-out: Ba/F3 HER2 A775-G776insYVMA IC50
[9] = SD, rat, in vivo, PO 10 mg/kg, NA: Exposure was too low to be counted
[10] = SD, rat, whole blood, IV 3 mg/kg
[11] = SD, rat, whole blood, NA: Exposure was too low to be counted
[12] = SD, rat, whole blood, PO 10 mg/kg, NA: Exposure was too low to be counted
[13] = whole blood, read-out: Blood drug concentration
[14] = brain, NA: Exposure was too low to be counted, read-out: Brain tissue concentration

T1 sequence (P04626 23-1255): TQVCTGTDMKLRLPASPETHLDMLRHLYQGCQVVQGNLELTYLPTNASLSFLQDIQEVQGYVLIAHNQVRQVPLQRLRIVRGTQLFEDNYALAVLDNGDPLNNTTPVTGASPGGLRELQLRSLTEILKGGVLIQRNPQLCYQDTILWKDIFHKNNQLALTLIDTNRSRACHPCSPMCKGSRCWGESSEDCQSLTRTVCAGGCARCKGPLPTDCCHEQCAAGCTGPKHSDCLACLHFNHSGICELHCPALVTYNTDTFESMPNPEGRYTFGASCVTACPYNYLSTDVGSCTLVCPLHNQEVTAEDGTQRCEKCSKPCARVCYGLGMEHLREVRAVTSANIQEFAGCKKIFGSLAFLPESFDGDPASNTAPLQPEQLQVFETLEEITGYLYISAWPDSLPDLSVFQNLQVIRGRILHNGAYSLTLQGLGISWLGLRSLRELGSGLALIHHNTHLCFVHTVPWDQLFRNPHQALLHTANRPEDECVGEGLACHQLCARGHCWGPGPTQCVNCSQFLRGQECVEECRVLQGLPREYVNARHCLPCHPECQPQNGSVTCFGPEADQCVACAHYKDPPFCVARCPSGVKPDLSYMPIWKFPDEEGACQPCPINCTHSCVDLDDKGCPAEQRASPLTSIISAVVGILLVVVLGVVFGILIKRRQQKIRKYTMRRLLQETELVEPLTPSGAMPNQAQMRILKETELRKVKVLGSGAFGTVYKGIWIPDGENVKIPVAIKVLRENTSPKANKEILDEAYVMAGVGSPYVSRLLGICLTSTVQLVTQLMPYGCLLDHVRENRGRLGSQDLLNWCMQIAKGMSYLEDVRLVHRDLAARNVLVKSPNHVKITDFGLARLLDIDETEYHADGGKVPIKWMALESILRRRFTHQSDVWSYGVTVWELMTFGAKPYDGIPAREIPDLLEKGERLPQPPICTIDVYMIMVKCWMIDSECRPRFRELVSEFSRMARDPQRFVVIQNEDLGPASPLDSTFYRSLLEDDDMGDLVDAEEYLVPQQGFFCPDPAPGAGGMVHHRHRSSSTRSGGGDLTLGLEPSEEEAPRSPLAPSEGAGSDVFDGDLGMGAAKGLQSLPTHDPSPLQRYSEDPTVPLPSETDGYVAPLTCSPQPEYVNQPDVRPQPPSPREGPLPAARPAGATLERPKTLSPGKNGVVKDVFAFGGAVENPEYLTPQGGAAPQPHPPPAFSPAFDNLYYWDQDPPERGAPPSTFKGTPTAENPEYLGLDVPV

IC50 [1] [nM]	IC50 [2] [nM]	GI50 [3, 8] [nM]	GI50 [4] [nM]	Structure (SMILES)	Cl_obs ([5]; IV 3 mg/kg) [mL/min/kg]	AUC(0-inf) [5, 10] [ng·h/mL]	Vd [5, 10] [L/kg]	bioavailability [5, 11] [%]	AUC(0-inf) [5, 12] [ng·h/mL]	concentration at 2 h [6, 13] [ng/mL]	Kp at 2 h [6]	concentration at 2 h [6, 14] [ng/g]	effect on tumor size (in words) [7]	T/C (%) [7] [%]	further results
< 10	< 10	1 to 5	10 to 100	CN1CCC[C@@H]1/C=C/C(=O)Nc1ccc2ncnc(Nc3ccc(OCc4ccccn4)c(Cl)c3)c2c1OCCCO [Example 17, (R,E)-N-(4-((3-chloro-4-(pyridin-2-ylmethoxy)phenyl)amino)-5-(3-hydroxypropoxy)quinazolin-6-yl)-3-(1-methylpyrrolidin-2-yl)acrylamide]	–	–	–	–	–	–	–	–	–	–	–
< 10	10 to 100	1 to 5	10 to 100	COCCN1CCC[C@@H]1/C=C/C(=O)Nc1ccc2ncnc(Nc3ccc(OCc4cccc(F)c4)c(Cl)c3)c2c1OC [Example 26]	–	–	–	–	–	–	–	–	–	–	–
–	–	–	–	CCOc1cc2ncc(C#N)c(Nc3ccc(OCc4ccccn4)c(Cl)c3)c2cc1NC(=O)/C=C/CN(C)C [NERATINIB, neratinib, reference compound]	20.8 ± 2.0	2420 ± 252	7.94 ± 1.71	18.2 ± 7.89	1470 ± 638	440	0.0366	14.4	still remain significant growth	45.9	GI50 ([3]; read-out: Ba/F3 HER2 A775-G776insYVMA IC50, 72 hours): 10 to 100 nM; AUC(0-t) ([5]; SD, rat, in vivo, IV 3 mg/kg): 2390 ± 267 ng·h/mL; half-life ([5]; SD, rat, in vivo, IV 3 mg/kg): 4.38 ± 0.55 h; AUC(0-t) [5, 9]: 1470 ± 637 ng·h/mL; Cmax [5, 9]: 201 ± 66 ng/mL; half-life [5, 9]: 2.97 ± 0.27 h
–	–	10 to 100	–	CCOc1cc2ncc(C#N)c(Nc3ccc(OCc4ccccn4)c(Cl)c3)c2cc1NC(=O)/C=C/[C@H]1CCCN1C [PYROTINIB, pyrotinib, reference compound]	6.04 ± 0.63	8340 ± 890	1.81 ± 0.26	10.1 ± 4	2810 ± 1110	884	0.0291	25.8	still remain significant growth	38.3	AUC(0-t) [5, 10]: 8310 ± 892 ng·h/mL; half-life [5, 10]: 3.45 ± 0.24 h; AUC(0-t) [5, 12]: 2790 ± 1110 ng·h/mL; Cmax [5, 12]: 246 ± 76 ng/mL; Tmax [5, 12]: 4.33 ± 2.52 h; half-life [5, 12]: 3.6 ± 0.37 h
